Patent US20230088704A1, “A PHARMACEUTICAL COMBINATION FOR THE TREATMENT OF A CANCER” (ABILITY PHARMACEUTICALS S.L., priority 2020, published 2023)

Columns and labels:
[1] = system: human immortalized THP1 macrophages and human primary macrophages; test: Secretome of THP1 and primary macrophages, cytokine antibody array; format: cell-based
Description: Methods: Whole blood was collected from healthy donors, and circulating monocytes were purified using immunomagnetic separation. Monocytes were selected using anti-CD14 antibodies bound to magnetic beads, which were retained in the magnetic column and further eluted for culturing in vitro. Monocytes were differentiated to macrophages incubating with M-CSF1 at 20 ng/mL for 7 days. Once primary monocytes were differentiated to macrophages, these were polarized to M1 by incubation with LPS for 6 or 24 hours in the presence of ABTL0812 (50 or 100 μM). In parallel, differentiated macrophages were polarized to M2 by incubation with IL-4 and IL-13 for 24 hours in the presence of ABTL0812 (50 μM). THP-1 monocytes growing in suspension were differentiated to macrophages by incubation with PMA for 24 hours, inducing their attachment to the plates. Once THP-1 were differentiated to macrophages, these were polarized to M1 by incubation with LPS for 6 or 24 hours in the presence of ABTL0812 (50 μM). In parallel, differentiated macrophages were polarized to M2 by incubation with IL-4 and IL-13 for 24 hours in the presence of ABTL0812 (50 μM). The culture media from ABTL0812 treated M1, M2 and differentiated macrophages (M0) were incubated using the RayBio C-Series Human Cytokine Antibody Array C3 (RayBiotec). Culture media was incubated with a PVDF (Polyvinylidene fluoride) membrane containing antibodies against 42 different cytokines. After incubation of culture media, the membrane was incubated with secondary antibodies and further developed using HRP (Horseradish peroxidase) substrate.

Ishikawa cells = format: in vivo; conditions: ABTL0812 oral 120 mg/kg/day; Doxorubicin 5 mg/kg i.p. once a week
Description: Methods: Mice were injected with 4×10^6 Ishikawa cells in one flank to induce tumor formation. […] ABTL0812 was administered by the oral route at 120 mg/kg/day. Doxorubicin 5 mg/kg was administered intra-peritoneally once a week. Tumor volume and body weight were monitored 3 times a week.

PD1 = PD1 expression in primary T cells by flow cytometry; format: cell-based, human; conditions: 6 hours
Description: Methods: Human PBMCs were purified from peripheral blood of healthy donors using Ficoll and cultured in vitro. Human T cells were activated by incubation with IL-2 and CD3 and CD28 antibodies for 10 days and then treated with ABTL0812 for 6 hours. Finally, levels of PD1 expressed in the membrane of T cells was analyzed by flow cytometry using specific antibodies. Results are indicated as % of positive cells and show the average of three independent experiments (t-test **p<0.01 and ***p<0.001).

LA1-5S cells = test: Cell viability (crystal violet), ABTL0812 with topotecan; format: cell-based; conditions: ABTL0812 30 μM + topotecan 0.5, 1, 2 μM; 72 hours
Description: Methods: LA1-5S cells were incubated with increasing concentrations of topotecan (0.5 μM, 1 μM and 2 μM) and a fixed concentration of ABTL0812 (30 μM). Cells were treated for 72 hours in IMDM with 0.5% FBS. Cell viability was evaluated by crystal violet assay. Data is presented as mean±SEM of three independent experiments. Statistical analyses were performed according to the T-Test principle with GraphPad Prism® 5.0 software.

[2] = system: Human pancreatic cancer cells; test: Secretome of pancreatic cancer cells, chemokine antibody array; format: cell-based; conditions: ABTL0812 100 μM; 24 hours
Description: Methods: Human pancreatic cancer cells were treated with ABTL0812 at 100 μM for 24 hours and culture media was collected for its incubation using the RayBio C-Series Human Chemokine Antibody Array C1 (RayBiotec). Culture media was incubated with a membrane containing antibodies against 38 different chemokines. Afterwards, the membrane was incubated with secondary antibodies and further developed using HRP substrate.

[3] = system: endometrial carcinogenesis induced by the deletion of PTEN; test: Endometrial carcinogenesis induced by PTEN deletion; format: in vivo, mice; conditions: ABTL0812 120 mg/kg daily during 3 weeks
Description: Methods: Mice were injected with tamoxifen to induce PTEN deletion. Three weeks after tamoxifen administration, when animal has developed hyperplasias, animals were administered with ABTL0812 at 120 mg/kg daily or with vehicle during 3 weeks. At that time, vehicle treated animals (6 weeks after tamoxifen injection) develop neoplasias, which are quantified by immunohistochemistry of extracted uterus. After ABTL0812 treatment, animals were sacrificed, uterus extracted in paraffin-embedded for further immunohistochemical analysis by hematoxylin-eosin staining for carcinogenesis evaluation or with anti-CD3 to evaluate T lymphocyte infiltration within tumoral lesions, indicative of tumor microenvironment immunomodulation.

MiaPaca2 cells [4] = test: Cytotoxicity against MiaPaca2 cells; format: cell-based, human; conditions: previous results
H157 cells = test: PDL1 protein in xenograft tumors by western blot; format: in vivo, nude mice; conditions: ABTL0812 oral 120 mg/kg/day for three weeks
Description: (§1) Methods: Mice were injected with 4×10^6 H157 cells or 5×10^6 MiaPAca2 cells in one flank to induce tumor formation. […] After treatment, animals were sacrificed, tumor extracted and protein levels of PDL1 in cancer cells analyzed by western blot.

MiaPaca2 cells [5] = test: PDL1 protein in xenograft tumors by western blot; format: in vivo, nude mice; conditions: ABTL0812 oral 120 mg/kg/day for three weeks
Description: as §1

[6] = system: THP-1 human macrophage cells; test: M1/M2 macrophage polarization, marker mRNA by RT-qPCR; format: cell-based
Description: Methods: THP-1 monocytes growing in suspension are differentiated to macrophages by incubation with PMA for 24 hours, inducing their attachment to the plates. Once THP-1 are differentiated to macrophages, these are polarized to M1 by incubation with LPS for 6 or 24 hours in the presence of ABTL0812 (50 or 100 μM). In parallel, differentiated macrophages are polarized to M2 by incubation with IL-4 and IL-13 for 24 hours in the presence of ABTL0812 (50 μM). Then, polarized macrophages are lysed, total RNA extracted, retrotranscribed to cDNA and mRNA levels of IL1β, TNFα (M1 markers) and […] (M2 marker) were evaluated by RT-qPCR using specific probes.

[7] = common in immortalized THP1 cells and in primary macrophages
[8] = macrophages polarized to M1 (LPS 6 or 24 hours), ABTL0812 50 or 100 μM

CCCCC/C=C\C/C=C\CCCCCCC(O)C(=O)O (stereo not shown) [ABTL0812, COOH—CHOH—(CH2)6—(CH═CH—CH2)2—(CH2)3—CH3]
secreted IL-1β ([1]; ABTL0812 50 or 100 μM): upregulation | secreted TNF-α ([1]; ABTL0812 50 or 100 μM): upregulation | secreted CCL7 [1, 7]: inhibited | secreted CCL8 [1, 7]: inhibited | secreted CCL17 [1, 7]: inhibited | secreted CCL22 [1, 7]: inhibited | secreted IL-10 [1, 7]: inhibited | tumor volume (Ishikawa cells): significantly reduced tumor volume | PD1 expression (PD1; activated (IL-2, CD3 and CD28 antibodies) human primary CD4 and CD8 T lymphocytes): induces the inhibition of PD1 expression | PD1 expression (PD1; non-activated human primary CD4 and CD8 T lymphocytes): induces the inhibition of PD1 expression | topotecan cytotoxicity on addition of ABTL0812 (LA1-5S cells): significantly increased topotecan cytotoxicity | secreted CCL5 [2]: decrease | secreted CXCL6 [2]: decrease | secreted CXCL16 [2]: decrease | secreted angiogenin [2]: decrease | development of endometrial intraepithelial neoplasias (EIN) [3]: significant reduction in the development of endometrial intraepithelial neoplasias | CD3 T lymphocyte infiltration ([3]; anti-CD3 immunohistochemistry): induce the infiltration of CD3 T lymphocytes within tumoral lesions | animals with hyperplasias ([3]; hematoxylin-eosin staining): 80% | IC50 (MiaPaca2 cells [4]): 50 µM | protein levels of PDL1 in tumor (H157 cells): Increases protein levels of PDL1 in tumor in vivo | protein levels of PDL1 in tumor (MiaPaca2 cells [5]): Increases protein levels of PDL1 in tumor in vivo | expression of IL-1β ([6]; differentiated macrophages without polarizing, ABTL0812 alone): significantly induce the expression of IL-1β | IL-1β mRNA levels [6, 8]: significantly potentiates | TNFα mRNA levels [6, 8]: significantly potentiates | IL-10 mRNA levels ([6]; macrophages polarized to M2 (IL-4 and IL-13, 24 hours), ABTL0812 50 μM): significantly suppresses
